Experimental data published in article PMC12152189, “Structure of a stripped-down and tuned-up far-red phycobilisome” (Communications Biology, 2025).

Tests used:
Experiment in all cases: cryo-EM structure, […] Å
Assay type in all cases: binding
[1] = target: T1, ApcE2 (in FR-APC) (Chroococcidiopsis thermalis, UniProt K9TUP3); details: non-covalent (no Cys linkage); ZZZ,ssa; ApcF2 Thr76 H-bonds ring D; pH 6.5
T1 construct: gene Chro_1035; native purification from far-red-grown cells; intact bicylindrical FR-APC; ApcE2 in second (alpha-beta)3 trimer
T1 sequence (K9TUP3 1-780): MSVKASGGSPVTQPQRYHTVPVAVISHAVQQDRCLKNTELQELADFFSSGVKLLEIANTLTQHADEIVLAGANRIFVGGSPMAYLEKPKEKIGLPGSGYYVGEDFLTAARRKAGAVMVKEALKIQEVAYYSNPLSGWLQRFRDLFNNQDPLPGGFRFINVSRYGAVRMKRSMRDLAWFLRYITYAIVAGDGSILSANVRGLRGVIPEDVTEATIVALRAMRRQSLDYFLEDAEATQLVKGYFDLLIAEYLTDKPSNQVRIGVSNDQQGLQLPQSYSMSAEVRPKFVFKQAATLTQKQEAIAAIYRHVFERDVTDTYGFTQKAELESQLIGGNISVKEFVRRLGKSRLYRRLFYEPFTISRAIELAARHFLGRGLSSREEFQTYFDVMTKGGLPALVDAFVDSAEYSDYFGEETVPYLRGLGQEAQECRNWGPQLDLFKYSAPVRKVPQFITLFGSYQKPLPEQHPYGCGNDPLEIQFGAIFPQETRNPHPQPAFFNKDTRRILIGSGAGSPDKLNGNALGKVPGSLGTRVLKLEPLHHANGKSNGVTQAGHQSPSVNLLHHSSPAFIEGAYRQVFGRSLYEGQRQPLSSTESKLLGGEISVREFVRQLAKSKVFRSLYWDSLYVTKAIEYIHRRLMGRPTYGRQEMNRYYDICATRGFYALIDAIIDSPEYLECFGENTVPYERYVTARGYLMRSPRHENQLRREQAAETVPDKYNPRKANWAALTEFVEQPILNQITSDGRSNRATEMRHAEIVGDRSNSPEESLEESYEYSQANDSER
T1 sequence (K9TY40 1-169 partner): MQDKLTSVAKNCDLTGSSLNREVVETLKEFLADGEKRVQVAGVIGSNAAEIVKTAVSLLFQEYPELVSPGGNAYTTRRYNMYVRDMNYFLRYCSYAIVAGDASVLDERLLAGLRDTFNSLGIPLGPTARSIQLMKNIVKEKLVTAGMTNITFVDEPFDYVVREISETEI

[2] = target: T2, ApcB2 (in FR-APC) (Chroococcidiopsis thermalis, UniProt K9TVG8); details: covalent; several sites, proximal (with ApcC) and distal (without ApcC); pH 6.5
T2 construct: gene Chro_1033; native purification from far-red-grown cells; intact bicylindrical FR-APC; ApcC contacts the proximal ApcB2 bilin only; with Far-red allophycocyanin alpha subunit ApcD5
T2 sequence (K9TVG8 1-161): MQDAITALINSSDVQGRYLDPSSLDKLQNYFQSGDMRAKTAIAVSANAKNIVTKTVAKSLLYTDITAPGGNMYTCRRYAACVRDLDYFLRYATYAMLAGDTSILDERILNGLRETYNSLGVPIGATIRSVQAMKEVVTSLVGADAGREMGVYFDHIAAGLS
T2 sequence (K9U510 1-67 partner): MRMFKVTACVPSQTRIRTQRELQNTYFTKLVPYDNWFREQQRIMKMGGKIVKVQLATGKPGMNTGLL

[3] = target: T3, ApcF2 (in FR-APC) (Chroococcidiopsis thermalis, UniProt K9TY40); details: non-covalent (no Cys linkage); ZZZ,ssa; Arg77 and Arg84 contact propionates; pH 6.5
T3 construct: gene Chro_1766; native purification from far-red-grown cells; intact bicylindrical FR-APC; heterodimer with ApcE2; with Far-red phycobilisome core-membrane linker protein ApcE2 (phycobiliprotein ApcE)
T3 sequence (K9TY40 1-169): T1 sequence (K9TY40 1-169 partner)
T3 sequence (K9TUP3 1-780 partner): T1 sequence (K9TUP3 1-780)

## C/C=C1/C(=C/c2[nH]c(/C=C3N=C(/C=C4\NC(=O)C(CC)=C4C)C(C)=C\3CCC(=O)O)c(CCC(=O)O)c2C)NC(=O)[C@@H]1C [phycocyanobilin]
[1]
  cryo-EM structure, 2.51 Å: the bilin pigments in ApcE2 and ApcF2 are non-covalently bound
[2]
  cryo-EM structure, 2.51 Å: ApcB2 is represented in green while phycocyanobilin is represented in blue
[3]
  cryo-EM structure, 2.51 Å: in ApcF2 the pigment is in ZZZ,ssa conformation
